Reference: ChEMBL document CHEMBL4330100, “Selective estrogen receptor degraders with novel structural motifs induce regression in a tamoxifen-resistant breast cancer xenograft” (Bioorg Med Chem Lett, 2019)

How the values were obtained:
Estrogen receptor = target: T1, Estrogen receptor (Homo sapiens, UniProt P03372); experiment: Induction of ERalpha degradation in human MCF7 cells in phenol red free RPMI medium containing 5% charcoal-stripped FBS incubated for 4 hrs by IRDye 800CW/DRAQ5 dye based in-cell Western assay
T1 sequence (P03372 whole entry): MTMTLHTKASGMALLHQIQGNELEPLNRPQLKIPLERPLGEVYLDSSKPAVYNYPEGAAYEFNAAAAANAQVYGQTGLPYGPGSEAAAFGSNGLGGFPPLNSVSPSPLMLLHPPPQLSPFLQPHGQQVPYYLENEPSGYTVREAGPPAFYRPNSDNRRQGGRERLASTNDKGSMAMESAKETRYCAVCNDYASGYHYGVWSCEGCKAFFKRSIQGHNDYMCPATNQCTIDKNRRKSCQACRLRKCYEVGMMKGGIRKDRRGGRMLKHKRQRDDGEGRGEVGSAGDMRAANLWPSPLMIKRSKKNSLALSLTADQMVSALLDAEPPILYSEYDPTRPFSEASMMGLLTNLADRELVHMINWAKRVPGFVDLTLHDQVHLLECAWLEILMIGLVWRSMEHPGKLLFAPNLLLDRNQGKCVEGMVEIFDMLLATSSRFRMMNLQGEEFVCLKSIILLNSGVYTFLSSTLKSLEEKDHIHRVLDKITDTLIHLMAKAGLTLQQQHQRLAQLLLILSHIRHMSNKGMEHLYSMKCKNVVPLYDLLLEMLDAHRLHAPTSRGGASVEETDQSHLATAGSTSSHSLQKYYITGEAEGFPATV

[1] = target: T2, Estrogen receptor (Homo sapiens) (UniProt P03372); experiment: Induction of ERalpha degradation in human MCF7 cells in phenol red free RPMI medium containing 5% charcoal-stripped FBS incubated for 4 hrs by IRDye 800CW/DRAQ5 dye based in-cell Western assay relative to fulvestrant
T2 sequence (whole entry): T1 sequence (P03372 whole entry)

MCF7 = experiment: Antiproliferative activity against human MCF7 cells assessed as reduction in cell proliferation measured after 5 days by Cell-titer-Glo assay; format: functional, cell-based; conditions: MCF7, 120 h
[2] = target: T2, Estrogen receptor (Homo sapiens); experiment: Induction of ERalpha degradation in human MCF7 cells in phenol red free RPMI medium containing 5% charcoal-stripped FBS at 2 to 10 uM incubated for 4 hrs by IRDye 800CW/DRAQ5 dye based in-cell Western assay relative to fulvestrant
Rattus norvegicus = experiment: In vivo antagonist activity at estrogen receptor in CD-IGS rat assessed as inhibition of estrogen-stimulated uterine growth at 1 mg/kg, po administered daily 15 mins before estrogen treatment for 3 days and measured 24 hrs post last dose relative to ARN-180; format: functional

Row | Structure (SMILES) | EC50 (Estrogen receptor) [nM] | Efficacy [1] [%] | IC50 (MCF7) [nM] | Efficacy [2] [%] | Efficacy (Rattus norvegicus) [%]
1 | CC/C(=C(/c1ccc(/C=C/C(=O)O)cc1)c1ccc(-c2cn[nH]c2)cc1)c1ccccc1 | 12 | 91 | 40 |  | 
2 | CC/C(=C(/c1ccc(/C=C/C(=O)O)cc1)c1ccc(N2CCCCC2)cc1)c1ccccc1 | 190 |  | 450 | 90 | 
3 | CC/C(=C(/c1ccc(/C=C/C(=O)O)cc1)c1ccn2ccnc2c1)c1ccccc1 | > 500 |  | > 500 |  | 
4 | CC/C(=C(/c1ccc(/C=C/C(=O)O)cc1)c1ccc(N2CCOCC2)cc1)c1ccccc1 | 50 | 91 | 94 |  | 
5 | CC/C(=C(/c1ccc(/C=C/C(=O)O)cc1)c1ccc(-n2ccnc2)cc1)c1ccccc1 | 300 |  | 380 | 89 | 
6 | O=C(O)/C=C/c1ccc(/C(=C(\c2ccccc2)C2CCC2)c2ccc(-c3cn[nH]c3)cc2)cc1 | 2.1 | 90 | 11 |  | 
7 | CC/C(=C(/c1ccc(/C=C/C(=O)O)cc1)c1ccc2sncc2c1)c1ccccc1 | 200 |  | > 500 | 90 | 
8 | N#Cc1cc(Cl)ccc1/C(=C(\c1ccc(/C=C/C(=O)O)cc1)c1ccc2nccn2c1)C1CCC1 | 4.3 | 93 | 5.9 |  | 
9 | CC/C(=C(/c1ccc(/C=C/C(=O)O)cc1)c1ccc2sc(C)nc2c1)c1ccccc1 | 150 |  | > 500 | 88 | 
10 | CC/C(=C(/c1ccc(/C=C/C(=O)O)cc1)c1ccc(-c2nccs2)cc1)c1ccccc1 | 83 |  | 290 | 91 | 
11 | O=C(O)/C=C/c1ccc(/C(=C(\c2ccccc2)C2CCC2)c2ccc3scnc3c2)cc1 | 5.9 | 88 | 16 |  | 
12 | CC/C(=C(\c1ccc(O)cc1)c1ccc(/C=C/C(=O)O)cc1)c1ccccc1 |  |  | 4.6 |  | 
13 | CC/C(=C(/c1ccc(/C=C/C(=O)O)cc1)c1ccc(-c2cscn2)cc1)c1ccccc1 | 37 | 90 | 120 |  | 
14 | CC/C(=C(/c1ccc(/C=C/C(=O)O)cc1)c1ccc2c(cnn2C)c1)c1ccc(F)cc1Cl | 27 | 86 | 81 |  | 
15 | N#Cc1cc(Cl)ccc1/C(=C(\c1ccc(/C=C/C(=O)O)cc1)c1ccc2scnc2c1)C1CCC1 | 0.4 |  | 0.9 |  | 91
16 | O=C(O)/C=C/c1ccc(/C(=C(\c2ncc(C(F)(F)F)cc2Cl)C2CCC2)c2ccc3scnc3c2)cc1 | 1.1 |  | 2.9 |  | 92
17 | CC/C(=C(\c1ccccc1)c1ccc(/C=C/C(=O)O)cc1)c1ccccc1 |  |  |  | 85 | 
18 | CC/C(=C(/c1ccc(/C=C/C(=O)O)cc1)c1ccc2nnnn2c1)c1ccccc1 | > 500 |  | > 500 |  | 
19 | O=C(O)/C=C/c1ccc(/C(=C(\c2ncc(C(F)(F)F)cc2Cl)C2CCC2)c2ccc(N3CCOCC3)cc2)cc1 | 4.1 | 92 | 20 |  | 
20 | CC/C(=C(/c1ccc(/C=C/C(=O)O)cc1)c1ccc2c(cnn2C)c1)c1ccccc1 | 140 |  | 300 | 84 | 
21 | CC/C(=C(/c1ccc(/C=C/C(=O)O)cc1)c1ccc(N2CCN(C)CC2)cc1)c1ccccc1 | 90 |  | 220 | 85 | 
22 | N#Cc1cc(Cl)ccc1/C(=C(\c1ccc(/C=C/C(=O)O)cc1)c1ccc(N2CCOCC2)cc1)C1CCC1 | 5 | 92 | 12 |  | 

Row | Structure (SMILES) | EC50 (Estrogen receptor) [nM] | Efficacy [1] [%] | IC50 (MCF7) [nM] | Efficacy [2] [%] | Efficacy (Rattus norvegicus) [%]
23 | CC/C(=C(/c1ccc(/C=C/C(=O)O)cc1)c1ccn2nncc2c1)c1ccccc1 | 340 |  | > 500 | 86 | 
24 | CC/C(=C(/c1ccc(/C=C/C(=O)O)cc1)c1ccc(-c2cnn(C)c2)cc1)c1ccccc1 | 15 | 92 | 80 |  | 
25 | CC/C(=C(/c1ccc(/C=C/C(=O)O)cc1)c1ccc2scnc2c1)c1ccccc1 | 22 | 89 | 90 |  | 
26 | CC/C(=C(/c1ccc(/C=C/C(=O)O)cc1)c1ccc(-c2cc[nH]n2)cc1)c1ccccc1 | 99 |  | 440 | 86 | 
27 | CC/C(=C(/c1ccc(/C=C/C(=O)O)cc1)c1ccc2nncn2c1)c1ccccc1 | > 500 |  | > 500 |  | 
28 | N#Cc1ccc(/C(=C(\c2ccc(/C=C/C(=O)O)cc2)c2ccc(-c3cncs3)cc2)C2CCC2)c(Cl)c1 | 1.8 | 94 | 2.9 |  | 
29 | CC/C(=C(/c1ccc(/C=C/C(=O)O)cc1)c1ccc2ccccc2c1)c1ccccc1 | 57 |  | 180 | 91 | 
30 | O=C(O)/C=C/c1ccc(/C(=C(\c2ccc(C(F)(F)F)cc2Cl)C2CCC2)c2ccc3nccn3c2)cc1 | 1.5 | 94 | 5.1 |  | 
31 | O=C(O)/C=C/c1ccc(/C(=C(\c2ncc(C(F)(F)F)cc2Cl)C2CCC2)c2ccc(-c3cncs3)cc2)cc1 | 1.4 | 93 | 7.3 |  | 
32 | CC/C(=C(/c1ccc(/C=C/C(=O)O)cc1)c1ccc(-c2cncs2)cc1)c1ccccc1 | 7.4 | 90 | 31 |  | 
33 | CC/C(=C(/c1ccc(/C=C/C(=O)O)cc1)c1ccc2nccn2c1)c1ccccc1 | 75 |  | 170 | 86 | 
34 | CC/C(=C(/c1ccc(/C=C/C(=O)O)cc1)c1ccc(-c2cnsc2)cc1)c1ccccc1 | 28 | 89 | 120 |  | 
35 | CC/C(=C(/c1ccc(/C=C/C(=O)O)cc1)c1ccc(-c2cnco2)cc1)c1ccccc1 | 17 | 92 | 51 |  | 
36 | CC/C(=C(/c1ccc(/C=C/C(=O)O)cc1)c1ccc2ocnc2c1)c1ccccc1 | 460 |  | > 500 | 86 | 
37 | O=C(O)/C=C/c1ccc(/C(=C(\c2ccc(C(F)(F)F)cc2Cl)C2CCC2)c2ccc(-c3cn[nH]c3)cc2)cc1 | 4.8 | 93 | 16 |  | 
38 | N#Cc1ccc(/C(=C(\c2ccc(/C=C/C(=O)O)cc2)c2ccc(N3CCOCC3)cc2)C2CCC2)c(Cl)c1 | 4.2 | 92 | 7.5 |  | 
39 | CC/C(=C(/c1ccc(/C=C/C(=O)O)cc1)c1ccc2ncsc2c1)c1ccccc1 | 240 |  | > 500 | 86 | 
40 | N#Cc1ccc(/C(=C(\c2ccc(/C=C/C(=O)O)cc2)c2ccc3nccn3c2)C2CCC2)c(Cl)c1 | 19 | 93 | 15 |  | 
41 | CC/C(=C(/c1ccc(/C=C/C(=O)O)cc1)c1ccn2nccc2c1)c1ccccc1 | 350 |  | > 500 | 90 | 
42 | O=C(O)/C=C/c1ccc(/C(=C(\c2ncc(C(F)(F)F)cc2Cl)C2CCC2)c2ccc(-c3cn[nH]c3)cc2)cc1 | 2.8 | 93 | 16 |  | 
43 | CC/C(=C(/c1ccc(/C=C/C(=O)O)cc1)c1ccc2cncn2c1)c1ccccc1 | 260 |  | > 500 | 86 | 
